Data taken from PubChem BioAssay AID1259411 (Chemical Carcinogenesis Research Information System (CCRIS), 2018).
Activity calls are given as the source filed them. The rule behind the calls is not given here.

Tested on: rodent carcinogenicity bioassays, tumor incidence
Test: CCRIS carcinogenicity studies
Outline: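 Archive of carcinogenicity, mutagenicity, tumor promotion and tumor inhibition results drawn from journals, NCI reports and other sources, expert-reviewed; covers 1985-2011 and is no longer updated.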

CN(C)c1ccc(C(=N)c2ccc(N(C)C)cc2)cc1
carcinogen call (Species: HUMAN, Route: ORAL, INHALATION, DERMAL, Tumor Site: Type of Lesion: URINARY BLADDER): active; positive | carcinogen call (Species: MOUSE, Route: ORAL, Tumor Site: Type of Lesion: LIVER, LYMPHATIC SYSTEM: LYMPHOMA): active; positive | carcinogen call (Species: RAT, Route: ORAL, Tumor Site: Type of Lesion: LIVER): active; positive | carcinogen call (Species: RAT, Route: SUBCUTANEOUS, Tumor Site: Type of Lesion: INJECTION SITE): active; positive

O=[N+]([O-])c1ccc2ccc3c4ccccc4ccc3c2c1
carcinogen call (Species: MOUSE, Strain/Sex: ICR/FEMALE, Route: INTRAPERITONEAL, Dose: 0, 100 NMOL (TOTAL DOSE) ADMINISTERED IN 3 SUBDOSES OF 1/7, 2/7, AND 4/7 ON DAYS 1, 8 AND 15 OF LIFE, RESPECTIVELY (STUD): inactive; negative | carcinogen call (Species: MOUSE, Strain/Sex: ICR/MALE, Route: INTRAPERITONEAL, Dose: 0, 100 NMOL (TOTAL DOSE) ADMINISTERED IN 3 SUBDOSES OF 1/7, 2/7, AND 4/7 ON DAYS 1, 8 AND 15 OF LIFE, RESPECTIVELY (STUD): inactive; negative

CCCCCc1cc(O)c2c(c1)OC(C)(C)[C@@H]1CCC(C)=C[C@@H]21
carcinogen call (Species: MOUSE, Strain/Sex: B6C3F1/FEMALE, Route: GAVAGE, Dose: 0, 125, 250, 500 MG/KG BW IN CORN OIL FOR 105-106 WK (STUDY DURATION: 105-106 WK), Dose: 0, 125, 250, 500 MG/KG BW IN CORN OIL FOR 105-106 WK (STUDY DURATION: 105-106 WK), Tumor Site: Type of Lesion: THYROID GLAND: FOLLICULAR CELL ADENOMA): equivocal | carcinogen call (Species: MOUSE, Strain/Sex: B6C3F1/MALE, Route: GAVAGE, Dose: 0, 125, 250, 500 MG/KG BW IN CORN OIL FOR 104-105 WK (STUDY DURATION: 104-105 WK), Dose: 0, 125, 250, 500 MG/KG BW IN CORN OIL FOR 104-105 WK (STUDY DURATION: 104-105 WK), Tumor Site: Type of Lesion: THYROID GLAND: FOLLICULAR CELL ADENOMA): equivocal | carcinogen call (Species: RAT, Strain/Sex: F344/FEMALE, Route: GAVAGE, Dose: 0, 12.5, 25, 50 MG/KG BW IN CORN OIL FOR 104-105 WK (STUDY DURATION: 104-105 WK), Dose: 0, 12.5, 25, 50 MG/KG BW IN CORN OIL FOR 104-105 WK (STUDY DURATION: 104-105 WK)): inactive; negative | carcinogen call (Species: RAT, Strain/Sex: F344/MALE, Route: GAVAGE, Dose: 0, 12.5, 25, 50 MG/KG BW IN CORN OIL FOR 104-105 WK (STUDY DURATION: 104-105 WK), Dose: 0, 12.5, 25, 50 MG/KG BW IN CORN OIL FOR 104-105 WK (STUDY DURATION: 104-105 WK)): inactive; negative

Nc1nc(-c2ccc([N+](=O)[O-])o2)cs1
carcinogen call (Species: RAT, Strain/Sex: F344/FEMALE, Route: ORAL, Dose: 0.166% IN DIET FOR 52 WK, Tumor Site: Type of Lesion: FORESTOMACH: PAPILLOMA, CARCINOMA, URINARY BLADDER: PAPILLOMA, CARCINOMA): active; positive | carcinogen call (Species: RAT, Strain/Sex: F344/MALE,FEMALE, Route: SUBCUTANEOUS, Dose: 10 MG/KG IN DMSO:WATER 1/WK FOR 8 WK, THEN 1.4 MG/RAT 1/WK FOR 46 WK, Tumor Site: Type of Lesion: INJECTION SITE: SARCOMA): active; positive

COc1cccc2c1C(=O)c1c(O)c3c(c(O)c1C2=O)C[C@@](O)(C(C)=O)C[C@@H]3O[C@H]1C[C@H](N)[C@H](O)[C@H](C)O1
carcinogen call (Species: RAT, Strain/Sex: SPRAGUE-DAWLEY/FEMALE, Route: INTRAVENOUS, Dose: 0, 10 MG/KG IN SALINE ONCE (STUDY DURATION: 244 D) (STUDY DURATION: 244 D), Tumor Site: Type of Lesion: MAMMARY GLAND: TUMOR): active; positive | carcinogen call (Species: RAT, Strain/Sex: SPRAGUE-DAWLEY/FEMALE, Route: INTRAVENOUS, Dose: 0, 10 MG/KG IN SALINE SOLUTION ONCE (STUDY DURATION: 1 YR), Tumor Site: Type of Lesion: MAMMARY GLAND: ADENOCARCINOMA): active; positive | carcinogen call (Species: RAT, Strain/Sex: SPRAGUE-DAWLEY/FEMALE, Route: SUBCUTANEOUS, Dose: 0, 2, 4, 8 UG IN 100 µL SALINE INTO THORACIC AND ABDOMINAL MAMMARY GLANDS ONCE (STUDY DURATION: 6.5 MO), Dose: 0, 2, 4, 8 UG IN 100 µL SALINE INTO THORACIC AND ABDOMINAL MAMMARY GLANDS ONCE (STUDY DURATION: 6.5 MO), Tumor Site: Type of Lesion: MAMMARY GLAND: TUMOR): active; positive | carcinogen call (Species: RAT, Strain/Sex: SPRAGUE-DAWLEY/MALE, Route: INTRAVENOUS, Dose: 0, 10 MG/KG IN SALINE SOLUTION ONCE (STUDY DURATION: 1 YR), Tumor Site: Type of Lesion: MAMMARY GLAND: ADENOCARCINOMA): active; positive

O=C(O)c1ccc([N+](=O)[O-])cc1
carcinogen call (Species: MOUSE, Strain/Sex: B6C3F1/FEMALE, Route: ORAL, Dose: 0, 1250, 2500, 5000 PPM IN DIET FOR 103 WK (STUDY DURATION: 104 WK), Dose: 0, 1250, 2500, 5000 PPM IN DIET FOR 103 WK (STUDY DURATION: 104 WK)): inactive; negative | carcinogen call (Species: MOUSE, Strain/Sex: B6C3F1/MALE, Route: ORAL, Dose: 0, 1250, 2500, 5000 PPM IN DIET FOR 103 WK (STUDY DURATION: 104 WK), Dose: 0, 1250, 2500, 5000 PPM IN DIET FOR 103 WK (STUDY DURATION: 104 WK)): inactive; negative | carcinogen call (Species: RAT, Strain/Sex: F344/FEMALE, Route: ORAL, Dose: 0, 1250, 2500, 5000 PPM IN DIET FOR 103 WK (STUDY DURATION: 104 WK), Dose: 0, 1250, 2500, 5000 PPM IN DIET FOR 103 WK (STUDY DURATION: 104 WK), Tumor Site: Type of Lesion: CLITORAL GLAND: ADENOMA, ADENOMA OR CARCINOMA): active; positive | carcinogen call (Species: RAT, Strain/Sex: F344/MALE, Route: ORAL, Dose: 0, 1250, 2500, 5000 PPM IN DIET FOR 103 WK (STUDY DURATION: 104 WK), Dose: 0, 1250, 2500, 5000 PPM IN DIET FOR 103 WK (STUDY DURATION: 104 WK)): inactive; negative

Cc1c(N)nc(C(CC(N)=O)NCC(N)C(N)=O)nc1C(=O)NC(C(=O)NC(C)C(O)C(C)C(=O)NC(C(=O)NCCc1nc(-c2nc(C(=O)NCCC[S+](C)C)cs2)cs1)C(C)O)C(O[C@@H]1O[C@@H](CO)[C@@H](O)[C@H](O)[C@@H]1O[C@H]1O[C@H](CO)[C@@H](O)[C@H](OC(N)=O)[C@@H]1O)c1cnc[nH]1 (some centres undefined)
carcinogen call (Species: RAT, Strain/Sex: SPRAGUE-DAWLEY/FEMALE, Route: SUBCUTANEOUS, Dose: 0, 0.35, 0.7, 1.40, 2.8 MG/KG IN SALINE 1/WK FOR 10 WK THEN 1/2 WK FOR 52 WK OR FOR LIFETIME (STUDY DURATION: 650 D), Dose: 0, 0.35, 0.7, 1.40, 2.8 MG/KG IN SALINE 1/WK FOR 10 WK THEN 1/2 WK FOR 52 WK OR FOR LIFETIME (STUDY DURATION: 650 D), Tumor Site: Type of Lesion: KIDNEY: MALIGNANT OR BENIGN TUMOR, INJECTION SITE: MALIGNANT TUMOR): active; positive | carcinogen call (Species: RAT, Strain/Sex: SPRAGUE-DAWLEY/MALE, Route: SUBCUTANEOUS, Dose: 0, 0.35, 0.70, 1.40, 2.8 MG/KG IN SALINE 1/WK FOR 10 WK THEN 1/2 WK FOR 52 WK OR FOR LIFETIME (STUDY DURATION: 650 D), Dose: 0, 0.35, 0.70, 1.40, 2.8 MG/KG IN SALINE 1/WK FOR 10 WK THEN 1/2 WK FOR 52 WK OR FOR LIFETIME (STUDY DURATION: 650 D), Tumor Site: Type of Lesion: KIDNEY: MALIGNANT OR BENIGN TUMOR, INJECTION SITE: MALIGNANT TUMOR): active; positive

C=CC(=O)OCC(CC)CCCC (centres undefined)
carcinogen call (Species: MOUSE, Strain/Sex: NMRI/MALE, Route: DERMAL, Dose: 0, 21.5, 43, 85% (W/W) IN ACETONE 3/WK FOR 2 YR (STUDY DURATION: 2 YR), Dose: 0, 21.5, 43, 85% (W/W) IN ACETONE 3/WK FOR 2 YR (STUDY DURATION: 2 YR)): inactive; negative

NC(Cc1ccc(N(CCCl)CCCl)cc1)C(=O)O (centres undefined)
carcinogen call (Species: RAT, Strain/Sex: SWISS/FEMALE, Route: INTRAPERITONEAL, Dose: 10 MG/KG, Tumor Site: Type of Lesion: MAMMARY GLAND: FIBROADENOMA): active; positive
